In assay [1] the target is isolated recombinant JAK1 kinase domain (Homo sapiens (Human), UniProt P23458). Put plainly: JAK1 enzyme assay (Caliper LabChip, peptide phosphorylation). In kind it is biochemical. Conditions: isolated recombinant JAK1 kinase domain, 25 μM ATP.
Assay [2] deals with JAK1-dependent STAT6 phosphorylation downstream of IL-13 stimulation in TF-1 human erythroleukemia cells. Put plainly: JAK1 pathway assay in TF-1 cells (IL-13-pSTAT6, MSD). In kind it is cell-based. As to conditions: Homo sapiens, TF-1, TF-1 cells, read-out: IL13-pSTAT6 EC50_TF-1. The procedure: JAK1 Pathway Assay in Cell Lines was Carried Out as Follows:
Inhibitor potency (EC50) was determined in cell-based assays designed to measure JAK1 dependent STAT phosphorylation.
In one assay approach, TF-1 human erythroleukemia cells obtained from the American Type Culture Collection (ATCC; Manassas, Va.) were used to measure JAK1-dependent STAT6 phosphorylation downstream of IL-13 stimulation. Prior to use in the assays, TF-1 cells were starved of GM-CSF overnight in OptiMEM medium (Life Technologies, Grand Island, N.Y.) supplemented with 0.5% charcoal/dextran stripped fetal bovine serum (FBS), 0.1 mM non-essential amino acids (NEAA), and 1 mM sodium pyruvate. The assays were run in 384-well plates in serum-free OptiMEM medium using 300,000 cells per well. In a second assay approach, BEAS-2B human bronchial epithelial cells obtained from ATCC were plated at 100,000 cells per well of a 96-well plate one day prior to the experiment. The BEAS-2B assay was run in complete growth medium (bronchial epithelial basal medium plus bulletkit; Lonza; Basel, Switzerland).
Test compounds were serially diluted 1:2 in DMSO and then diluted 1:50 in medium just before use. Diluted compounds were added to the cells, for a final DMSO concentration of 0.2%, and incubated for 30 min (for the TF-1 assay) or 1 hr (for the BEAS-2B assay) at 37° C. Then, cells were stimulated with human recombinant cytokine at their respective EC90 concentrations, as previously determined for each individual lot. Cells were stimulated with IL-13 (R&D Systems, Minneapolis, Minn.) for 15 min at 37° C. The TF-1 cell reactions were stopped by the direct addition of 10× lysis buffer (Cell Signaling Technologies, Danvers, Mass.), whereas the BEAS-2B cell incubations were halted by the removal of medium and addition of 1× lysis buffer. The resultant samples were frozen in the plates at −80° C. Compound mediated inhibition of STAT6 phosphorylation was measured in the cell lysates using MesoScale Discovery (MSD) technology (Gaithersburg, Md.).

The target of assay [3] is isolated recombinant JAK2 kinase domain (Homo sapiens (Human), UniProt O60674). The assay is described as follows: JAK2 enzyme assay (Caliper LabChip, peptide phosphorylation). In kind it is biochemical. Conditions: 25 μM ATP.

Each structure is given as a SMILES string.

From US9346815B2, “5-chloro-2-difluoromethoxyphenyl pyrazolopyrimidine compounds, compositions and methods of use thereof” (Genentech, Inc., priority 2014, dated 2016) come the findings set out here.

As a reminder, the Ki is a measure of affinity in units of concentration, obtained from inhibition or displacement.

Chain of isolated recombinant JAK1 kinase domain (P23458 875-1153): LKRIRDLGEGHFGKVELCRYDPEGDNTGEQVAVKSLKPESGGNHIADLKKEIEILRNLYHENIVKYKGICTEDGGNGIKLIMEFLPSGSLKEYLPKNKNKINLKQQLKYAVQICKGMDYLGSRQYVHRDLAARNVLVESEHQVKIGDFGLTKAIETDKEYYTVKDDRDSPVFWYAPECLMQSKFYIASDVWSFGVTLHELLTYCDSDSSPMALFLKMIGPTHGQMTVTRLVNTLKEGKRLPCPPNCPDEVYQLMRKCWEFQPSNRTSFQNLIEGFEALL
Chain of isolated recombinant JAK2 kinase domain (O60674 849-1124): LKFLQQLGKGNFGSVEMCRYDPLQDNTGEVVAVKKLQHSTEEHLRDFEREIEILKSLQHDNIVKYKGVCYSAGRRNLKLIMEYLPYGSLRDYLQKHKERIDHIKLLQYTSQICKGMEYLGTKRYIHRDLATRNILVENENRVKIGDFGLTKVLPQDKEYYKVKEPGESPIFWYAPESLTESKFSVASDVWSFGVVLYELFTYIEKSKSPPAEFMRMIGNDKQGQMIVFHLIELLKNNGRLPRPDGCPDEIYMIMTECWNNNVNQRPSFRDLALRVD

In the case of `CN1CCCN(C(=O)Cn2cc(NC(=O)c3c(N)nn4cccnc34)c(-c3cc(Cl)ccc3OC(F)F)n2)CC1` [Example 246, 2-amino-N-[3-[5-chloro-2-(difluoromethoxy)phenyl]-1-[2-(4-methyl-1,4-diazepan-1-yl)-2-oxo-ethyl]pyrazol-4-yl]pyrazolo[1,5-a]pyrimidine-3-carboxamide], the Ki in assay [1] stood at 1.08 nM; in assay [3], 0.57 nM. Besides, in assay [2], the EC50 was found to be 48.8 nM.
`COc1ccc(CCN(C)C2CCN(C(=O)Cn3cc(NC(=O)c4cnn5cccnc45)c(-c4cc(Cl)ccc4OC(F)F)n3)CC2)cc1` [Example 95, N-[3-[5-chloro-2-(difluoromethoxy)phenyl]-1-[2-[4-[2-(4-methoxyphenyl)ethyl-methyl-amino]-1-piperidyl]-2-oxo-ethyl]pyrazol-4-yl]pyrazolo[1,5-a]pyrimidine-3-carboxamide]: the Ki in assay [1] was found to be 0.8 nM; in assay [3], 2.6 nM. Further, the EC50 in assay [2] amounted to 17.3 nM.
The matching figures for `O=C(Nc1cn(CC(=O)N2CCC(N(Cc3ccccc3)CC(F)(F)F)CC2)nc1-c1cc(Cl)ccc1OC(F)F)c1cnn2cccnc12` [Example 116, N-[1-[2-[4-[benzyl(2,2,2-trifluoroethyl)amino]-1-piperidyl]-2-oxo-ethyl]-3-[5-chloro-2-(difluoromethoxy)phenyl]pyrazol-4-yl]pyrazolo[1,5-a]pyrimidine-3-carboxamide]: 3.76 nM, 7.04 nM and 23.3 nM.
The matching figures for `NC(=O)CCCN1CCC(n2cc(NC(=O)c3c(N)nn4cccnc34)c(-c3cc(Cl)ccc3OC(F)F)n2)CC1` [Example 162, 2-amino-N-[1-[1-(4-amino-4-oxo-butyl)-4-piperidyl]-3-[5-chloro-2-(difluoromethoxy)phenyl]pyrazol-4-yl]pyrazolo[1,5-a]pyrimidine-3-carboxamide]: 0.59 nM, 0.18 nM and 15.4 nM.
For the molecule `O=C(Nc1sc(N2CCN(CC3CC3)CC2)nc1-c1cc(Cl)ccc1OC(F)F)c1cnn2cccnc12` [Example 207, N-[4-[5-chloro-2-(difluoromethoxy)phenyl]-2-[4-(cyclopropylmethyl)piperazin-1-yl]thiazol-5-yl]pyrazolo[1,5-a]pyrimidine-3-carboxamide], the Ki in assay [1] came to 1.01 nM; in assay [3], 0.69 nM. For the same molecule, the EC50 in assay [2] is 23.6 nM.
The matching figures for `CCOC(=O)N1CCC(CN2C[C@@H]3CN(C(=O)Cn4cc(NC(=O)c5cnn6cccnc56)c(-c5cc(Cl)ccc5OC(F)F)n4)C[C@@H]3C2)CC1` [Example 23, ethyl 4-[[(3aS,6aR)-5-[2-[3-[5-chloro-2-(difluoromethoxy)phenyl]-4-(pyrazolo[1,5-a]pyrimidine-3-carbonylamino)pyrazol-1-yl]acetyl]-1,3,3a,4,6,6a-hexahydropyrrolo[3,4-c]pyrrol-2-yl]methyl]piperidine-1-carboxylate]: 0.7 nM, 0.81 nM and 8.6 nM.
The matching figures for `CC(=O)NCCCN1CCC(n2cc(NC(=O)c3c(N)nn4cccnc34)c(-c3cc(Cl)ccc3OC(F)F)n2)CC1` [Example 150, N-[1-[1-(3-acetamidopropyl)-4-piperidyl]-3-[5-chloro-2-(difluoromethoxy)phenyl]pyrazol-4-yl]-2-amino-pyrazolo[1,5-a]pyrimidine-3-carboxamide]: 0.73 nM, 0.17 nM and 20.1 nM.
The matching figures for `CN(C)C1CCN(C(=O)c2nc(-c3cc(Cl)ccc3OC(F)F)c(NC(=O)c3cnn4cccnc34)s2)CC1` [Example 265, N-[4-[5-chloro-2-(difluoromethoxy)phenyl]-2-[4-(dimethylamino)piperidine-1-carbonyl]thiazol-5-yl]pyrazolo[1,5-a]pyrimidine-3-carboxamide]: 3.63 nM, 4.29 nM and 22.8 nM.
`O=C(Nc1sc(N2CCC(N3CC(F)(F)C3)CC2)nc1-c1cc(Cl)ccc1OC(F)F)c1cnn2cccnc12` [Example 196, N-[4-[5-chloro-2-(difluoromethoxy)phenyl]-2-[4-(3,3-difluoroazetidin-1-yl)-1-piperidyl]thiazol-5-yl]pyrazolo[1,5-a]pyrimidine-3-carboxamide]: the Ki in assay [1] came to 1.74 nM; in assay [3], 1.05 nM. The EC50 in assay [2] turned out to be 17.4 nM.
Consider `O=C(Nc1cn(CC(=O)N2CCC(NC3CCC3)CC2)nc1-c1cc(Cl)ccc1OC(F)F)c1cnn2cccnc12` [Example 84, N-[3-[5-chloro-2-(difluoromethoxy)phenyl]-1-[2-[4-(cyclobutylamino)-1-piperidyl]-2-oxo-ethyl]pyrazol-4-yl]pyrazolo[1,5-a]pyrimidine-3-carboxamide], for which the inhibition constant Ki in assay [1] came to 0.91 nM; in assay [3], 1.47 nM. Further, in assay [2], the EC50 was determined as 24.6 nM.
The matching figures for `COCCN(C)C1CCN(C(=O)Cn2cc(NC(=O)c3cnn4cccnc34)c(-c3cc(Cl)ccc3OC(F)F)n2)CC1` [Example 68, N-[3-[5-chloro-2-(difluoromethoxy)phenyl]-1-[2-[4-[2-methoxyethyl(methyl)amino]-1-piperidyl]-2-oxo-ethyl]pyrazol-4-yl]pyrazolo[1,5-a]pyrimidine-3-carboxamide]: 0.74 nM, 1.68 nM and 13.4 nM.
For `Nc1nn2cccnc2c1C(=O)Nc1cn(C2CCN(CCCN3CCNC3=O)CC2)nc1-c1cc(Cl)ccc1OC(F)F` [Example 163, 2-amino-N-[3-[5-chloro-2-(difluoromethoxy)phenyl]-1-[1-[3-(2-oxoimidazolidin-1-yl)propyl]-4-piperidyl]pyrazol-4-yl]pyrazolo[1,5-a]pyrimidine-3-carboxamide], the Ki is 0.69 nM in assay [1] and 0.19 nM in assay [3]. The EC50 in assay [2] was 7.3 nM.
For the molecule `N#CC1(c2ccccc2)CCN(C(=O)Cn2cc(NC(=O)c3cnn4cccnc34)c(-c3cc(Cl)ccc3OC(F)F)n2)CC1` [Example 281, N-[3-[5-chloro-2-(difluoromethoxy)phenyl]-1-[2-(4-cyano-4-phenyl-1-piperidyl)-2-oxo-ethyl]pyrazol-4-yl]pyrazolo[1,5-a]pyrimidine-3-carboxamide], in assay [2], the EC50 was 2.2 nM. Moreover, the Ki in assay [3] is 0.45 nM.
Regarding `CN(C)C(=O)N1CCC(CN2C[C@@H]3CN(C(=O)Cn4cc(NC(=O)c5cnn6cccnc56)c(-c5cc(Cl)ccc5OC(F)F)n4)C[C@@H]3C2)CC1` [Example 36, N-[1-[2-[(3aR,6aS)-2-[[1-(dimethylcarbamoyl)-4-piperidyl]methyl]-1,3,3a,4,6,6a-hexahydropyrrolo[3,4-c]pyrrol-5-yl]-2-oxo-ethyl]-3-[5-chloro-2-(difluoromethoxy)phenyl]pyrazol-4-yl]pyrazolo[1,5-a]pyrimidine-3-carboxamide], in assay [2], the EC50 is 57.6 nM. In assay [3], the Ki stood at 0.62 nM.
The matching figures for `Nc1nn2cccnc2c1C(=O)Nc1cn(CC(=O)N2C[C@H]3CN(CC4CC4)C[C@H]3C2)nc1-c1cc(Cl)ccc1OC(F)F` [Example 57, N-[1-[2-[(3aS,6aR)-2-(cyclopropylmethyl)-1,3,3a,4,6,6a-hexahydropyrrolo[3,4-c]pyrrol-5-yl]-2-oxo-ethyl]-3-[5-chloro-2-(difluoromethoxy)phenyl]pyrazol-4-yl]-2-amino-pyrazolo[1,5-a]pyrimidine-3-carboxamide]: 15 nM and 0.13 nM.
The matching figures for `Nc1nn2cccnc2c1C(=O)Nc1cn(C2CCCNCC2)nc1-c1cc(Cl)ccc1OC(F)F` (stereo not drawn) [Example 171, 2-amino-N-[1-(azepan-4-yl)-3-[5-chloro-2-(difluoromethoxy)phenyl]pyrazol-4-yl]pyrazolo[1,5-a]pyrimidine-3-carboxamide]: 21.9 nM and 0.17 nM.
For the molecule `O=C(Nc1cn(CC(=O)N2CCC3(CNC3)C2)nc1-c1cc(Cl)ccc1OC(F)F)c1cnn2cccnc12` [Example 219, N-[3-[5-chloro-2-(difluoromethoxy)phenyl]-1-[2-(2,6-diazaspiro[3.4]octan-6-yl)-2-oxo-ethyl]pyrazol-4-yl]pyrazolo[1,5-a]pyrimidine-3-carboxamide], the EC50 in assay [2] worked out at 1030 nM. In addition, the Ki in assay [3] is 1.28 nM.
For the molecule `NC[C@@H]1CCCN1C(=O)Cn1cc(NC(=O)c2cnn3cccnc23)c(-c2cc(Cl)ccc2OC(F)F)n1` [Example 81, N-[1-[2-[(2S)-2-(aminomethyl)pyrrolidin-1-yl]-2-oxo-ethyl]-3-[5-chloro-2-(difluoromethoxy)phenyl]pyrazol-4-yl]pyrazolo[1,5-a]pyrimidine-3-carboxamide], the inhibitory constant (Ki) in assay [1] worked out at 5.35 nM. The EC50 in assay [2] stood at 253 nM.
